In brackets after ≈: the same amount, converted by molar mass. Where a name gives a salt, the structure may show the parent alone. Read-outs that look alike come from different tables or passages of the source.

Holding throughout (assay): MIC by agar dilution (Mueller Hinton Agar)
What all share (type): cell-based

The subject of experiment [1] is Citrobacter freundli. The conditions noted are these: Culture Number 3507, MHA, 35° C., 20 hours, read-out: Minimum Inhibitory Concentration. Here is the method: (§1) The compounds of this invention and their respective pharmacologically acceptable salts have antibiotic activity against a variety of gram-negative bacteria including Escherichia coli, Klebsiella pneumoniae, and Pseudomonas aeruginosa. The compounds are useful for treating bacterial infections in animals, including and most preferably humans. Compounds of the invention are tested for in vitro antimicrobial activity using standard testing procedures such as the determination of minimum inhibitory concentration (MIC) by agar dilution as described in "Methods for Dilution Antimicrobial Susceptibility Tests for Bacteria That Grow Aerobically" (M7-A) Published December 1985 by the National Committee for Clinical Laboratory Standards, 771 East Lancaster Avenue, Villanova, Pa. 19084. Briefly, MIC values are determined in unsupplemented Mueller Hinton Agar (MHA). The compounds tested are diluted serially into molten MHA at 47° C. The agar is poured into petri dishes and allowed to harden. The various bacteria used for testing are grown overnight on MHA at 35° C. and transferred to Tryptiease Soy Broth (TSB) until a turbidity of 0.5 McFarland standard is obtained. The bacteria are diluted one to 20 in TSB and inoculated on the plates (1 μl using a Steers replicator). […] The MIC test results of two typical compounds of this invention, Compound 14 which is (3S)-3-[2-(2-Amino-4-thiazolyl)-Z-(2)-carboxyisopropyloxyimino)acetamido]- 1-[(3-carboxy-4-pyridon-6-yl)-carbonylamino-1-(2-imidazolidone-3-yl)sulfonylaminocarbonyl]-2-azetidinone trisodium salt and Compound 17 which is (3S)-3-[2-(2-Amino-4-thiazolyl)-Z-(2)-(carboxyisopropyloxyamino)acetamido]-1-[(3-hydroxyaminocarbonyl-4-pyridon-6-yl)carbonylamino-1-(2-imidazolidone-3-yl)sulfonylaminocarbonyl]-2-azetidinone, are given in Table I.

Experiment [2] relates to Enterobacter cloacae. The conditions noted are these: 20 h, 35° C., read-out: Minimum Inhibitory Concentration. The procedure: as §1
In experiment [3] the test system is Escherichia coli. The conditions noted are these: 20 h, 35° C., read-out: Minimum Inhibitory Concentration. Here is the method: as §1
Experiment [4] concerns Klebsiella oxytoca. The conditions noted are these: 20 h, 35° C., read-out: Minimum Inhibitory Concentration. The procedure: as §1
The subject of experiment [5] is Klebsiella pneumoniae. The conditions noted are these: Culture Number 58, MHA, 35° C., 20 hours, read-out: Minimum Inhibitory Concentration. Here is the method:
as §1

Experiment [6] relates to Proteus vulgaris. The conditions noted are these: Culture Number 9679, MHA, 35° C., 20 hours, read-out: Minimum Inhibitory Concentration. The procedure:
as §1

Experiment [7] relates to Pseudomonas aeruginosa. Here is the method: as §1
In experiment [8] the test system is Serratia marcescens. The settings on record: Culture Number 6888, MHA, 35° C., 20 hours, read-out: Minimum Inhibitory Concentration. Here is the method:
as §1

Experiment [9] deals with Staphylococcus aureus. The conditions noted are these: MHA, 35° C., 20 hours; for MIC: Staphylococcus aureus, Culture Number 9218, read-out: Minimum Inhibitory Concentration. The procedure: as §1
Experiment [10] has as its system Streptococcus faecalis. The conditions noted are these: Enterococcus faecalis; Culture Number 694; MHA, 35° C., 20 hours; read-out: Minimum Inhibitory Concentration. Here is the method:
as §1

The subject of experiment [11] is Streptococcus pneumoniae. The conditions noted are these: Culture Number 41, MHA, 35° C., 20 hours, read-out: Minimum Inhibitory Concentration. The procedure:
as §1

Experiment [12] concerns Streptococcus pyogenes. The settings on record: Culture Number 152, MHA, 35° C., 20 hours, read-out: Minimum Inhibitory Concentration. The procedure: as §1
Setting [13] is: 20 h, Culture Number 231, MHA, 35° C., 20 hours, read-out: Minimum Inhibitory Concentration.
The mark [14] stands for this setting: 20 h, Culture Number 9191, MHA, 35° C., 20 hours, read-out: Minimum Inhibitory Concentration.

As for `CC(C)(O/N=C(\C(=O)N[C@H]1CN(C(=O)NS(=O)(=O)N2CCN(NC(=O)c3cc(=O)c(C(=O)O)c[nH]3)C2=O)C1=O)c1csc(N)n1)C(=O)O` [Compound 14, (3S)-3-[2-(2-Amino-4-thiazolyl)-Z-(2)-carboxyisopropyloxyimino)acetamido]-1-[(3-carboxy-4-pyridon-6-yl)-carbonylamino-1-(2-imidazolidone-3-yl)sulfonylaminocarbonyl]-2-azetidinone trisodium salt], the MIC turned out to be 0.25 mg/L in [1]; 64 mg/L in experiment [2] (Culture Number 9381, MHA); 0.5 mg/L in experiment [2] (Culture Number 9382, MHA); 0.25 mg/L in [3] (Culture Number 9379, MHA); 0.125 mg/L in experiment [3] (Culture Number 9380, MHA); 0.125 mg/L in experiment [3] (Culture Number 9451, MHA). Moreover, the MIC came to 4 mg/L in experiment [4] (Culture Number 9383, MHA); 0.25 mg/L in [4] (Culture Number 9384, MHA); 0.5 mg/L in experiment [5]; 0.06 mg/L in [6]; 0.5 mg/L in [7] (setting [13]); 1 mg/L in experiment [7] (setting [14]). The MIC in experiment [8] is 0.5 mg/L; in [9], more than 128 mg/L; in [10], more than 128 mg/L; in experiment [11] it was 64 mg/L; in experiment [12], 4 mg/L. Moreover, the “Minimum Inhibitory Concentration” value in [9] (Culture Number 3665) and in experiment [9] (Culture Number 6685) was more than 128 µg/mL throughout.

As to `CC(C)(O/N=C(\C(=O)N[C@H]1CN(C(=O)NS(=O)(=O)N2CCN(NC(=O)c3cc(=O)c(C(=O)NO)c[nH]3)C2=O)C1=O)c1csc(N)n1)C(=O)O` [Compound 17, (3S)-3-[2-(2-Amino-4-thiazolyl)-Z-(2)-(carboxyisopropyloxyamino)acetamido]-1-[(3-hydroxyaminocarbonyl-4-pyridon-6-yl)carbonylamino-1-(2-imidazolidone-3-yl)sulfonylaminocarbonyl]-2-azetidinone], the MIC in experiment [1] amounted to 0.25 mg/L (≈ 0.344 µM); in [2] (Culture Number 9381, MHA), 64 mg/L (≈ 88 µM); in experiment [2] (Culture Number 9382, MHA), 2 mg/L (≈ 2.75 µM); in experiment [3] (Culture Number 9379, MHA), 0.5 mg/L (≈ 0.687 µM); in [3] (Culture Number 9380, MHA), 0.5 mg/L (≈ 0.687 µM); in experiment [3] (Culture Number 9451, MHA), 0.25 mg/L (≈ 0.344 µM). For the same compound, the MIC in [4] (Culture Number 9383, MHA) is 4 mg/L (≈ 5.5 µM); in experiment [4] (Culture Number 9384, MHA), 0.5 mg/L (≈ 0.687 µM); in experiment [5], 0.5 mg/L (≈ 0.687 µM); in [6], 0.125 mg/L (≈ 0.172 µM); in [7] (setting [13]) it was 4 mg/L (≈ 5.5 µM); in [7] (setting [14]) it was 4 mg/L (≈ 5.5 µM). Besides, the MIC in experiment [8] is 2 mg/L (≈ 2.75 µM); in experiment [9], more than 128 mg/L; in experiment [10], more than 128 mg/L; in [11] it was 64 mg/L (≈ 88 µM); in experiment [12] it was 4 mg/L (≈ 5.5 µM). The “Minimum Inhibitory Concentration” value in [9] (Culture Number 3665) and in [9] (Culture Number 6685) was more than 128 µg/mL each time.

In the case of `CC(C)(O/N=C(\C(=O)N[C@H]1CN(C(=O)NS(=O)(=O)N2CCN(NC(=O)c3cc(=O)c(C(N)=O)c[nH]3)C2=O)C1=O)c1csc(N)n1)C(=O)O` [Compound 18], the MIC in experiment [7] (pseudomonas aeruginosa Culture No. 231, given in text for Compound 18, read-out: M/C) turned out to be 8 mg/L (≈ 11.2 µM).
